These results are taken from patent US8835472B2, “Compounds, pharmaceutical compositions and uses thereof” (Boehringer Ingelheim International GmbH, priority 2010, dated 2014).

SMILES strings stand for the structures.

human ACC2, sequence (O00763 129-2458): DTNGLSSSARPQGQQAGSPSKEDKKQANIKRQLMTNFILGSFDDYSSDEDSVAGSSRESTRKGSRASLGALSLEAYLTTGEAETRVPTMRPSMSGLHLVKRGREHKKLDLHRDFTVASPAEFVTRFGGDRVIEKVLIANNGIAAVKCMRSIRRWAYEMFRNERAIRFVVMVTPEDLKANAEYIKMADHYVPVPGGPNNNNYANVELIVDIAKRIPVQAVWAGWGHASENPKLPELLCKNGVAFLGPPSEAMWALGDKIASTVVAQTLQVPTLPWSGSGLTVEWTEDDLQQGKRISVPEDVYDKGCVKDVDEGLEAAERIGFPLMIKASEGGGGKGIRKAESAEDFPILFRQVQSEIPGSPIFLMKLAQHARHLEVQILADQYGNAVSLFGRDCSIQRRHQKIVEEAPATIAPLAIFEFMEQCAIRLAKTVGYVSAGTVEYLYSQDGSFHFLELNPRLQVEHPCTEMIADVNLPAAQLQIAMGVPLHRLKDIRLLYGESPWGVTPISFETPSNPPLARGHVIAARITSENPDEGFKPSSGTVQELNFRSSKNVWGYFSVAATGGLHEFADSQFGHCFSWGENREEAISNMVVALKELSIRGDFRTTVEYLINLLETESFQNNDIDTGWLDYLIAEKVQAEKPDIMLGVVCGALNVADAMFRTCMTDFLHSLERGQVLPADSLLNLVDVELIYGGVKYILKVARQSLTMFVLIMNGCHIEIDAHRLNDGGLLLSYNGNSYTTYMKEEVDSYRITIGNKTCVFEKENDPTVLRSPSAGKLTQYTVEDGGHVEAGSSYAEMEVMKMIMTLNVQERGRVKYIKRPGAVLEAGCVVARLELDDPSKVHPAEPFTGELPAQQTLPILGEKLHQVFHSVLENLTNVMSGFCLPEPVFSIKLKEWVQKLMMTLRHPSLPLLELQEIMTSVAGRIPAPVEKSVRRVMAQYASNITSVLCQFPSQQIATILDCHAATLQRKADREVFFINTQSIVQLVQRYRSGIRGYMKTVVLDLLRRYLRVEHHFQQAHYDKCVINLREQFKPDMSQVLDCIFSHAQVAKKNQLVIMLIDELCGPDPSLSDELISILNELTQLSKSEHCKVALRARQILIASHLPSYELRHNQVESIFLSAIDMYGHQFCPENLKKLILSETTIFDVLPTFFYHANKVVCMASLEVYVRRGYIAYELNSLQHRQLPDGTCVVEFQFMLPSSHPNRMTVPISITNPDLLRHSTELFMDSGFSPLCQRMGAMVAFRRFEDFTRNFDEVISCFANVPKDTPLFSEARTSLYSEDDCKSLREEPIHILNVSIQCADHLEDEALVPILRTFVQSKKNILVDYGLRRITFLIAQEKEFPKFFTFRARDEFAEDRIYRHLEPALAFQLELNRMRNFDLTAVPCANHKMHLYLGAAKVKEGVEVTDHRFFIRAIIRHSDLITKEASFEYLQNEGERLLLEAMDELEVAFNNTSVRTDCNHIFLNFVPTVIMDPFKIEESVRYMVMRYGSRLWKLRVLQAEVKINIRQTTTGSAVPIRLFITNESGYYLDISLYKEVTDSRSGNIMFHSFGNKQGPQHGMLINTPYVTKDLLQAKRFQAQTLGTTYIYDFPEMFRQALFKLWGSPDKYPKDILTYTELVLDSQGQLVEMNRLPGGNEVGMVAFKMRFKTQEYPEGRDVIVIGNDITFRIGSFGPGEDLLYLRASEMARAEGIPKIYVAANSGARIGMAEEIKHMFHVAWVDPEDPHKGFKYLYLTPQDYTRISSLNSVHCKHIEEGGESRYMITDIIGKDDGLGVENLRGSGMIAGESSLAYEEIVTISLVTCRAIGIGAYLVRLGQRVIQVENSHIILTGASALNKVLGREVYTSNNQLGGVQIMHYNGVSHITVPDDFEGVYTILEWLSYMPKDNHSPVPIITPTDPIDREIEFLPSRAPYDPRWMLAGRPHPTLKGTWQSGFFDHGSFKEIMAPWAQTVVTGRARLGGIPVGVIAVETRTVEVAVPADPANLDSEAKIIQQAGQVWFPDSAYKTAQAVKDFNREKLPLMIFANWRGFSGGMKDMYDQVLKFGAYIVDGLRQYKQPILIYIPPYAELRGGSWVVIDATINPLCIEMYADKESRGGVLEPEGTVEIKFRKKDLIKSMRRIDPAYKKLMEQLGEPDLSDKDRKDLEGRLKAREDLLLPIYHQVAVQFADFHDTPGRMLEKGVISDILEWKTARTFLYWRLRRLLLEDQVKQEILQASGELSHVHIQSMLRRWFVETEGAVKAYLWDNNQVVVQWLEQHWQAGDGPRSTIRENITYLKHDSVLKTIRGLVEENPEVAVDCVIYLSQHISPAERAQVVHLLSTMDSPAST

This experiment concerns the target human ACC2 (Homo sapiens (Human), UniProt O00763). Nature of the experiment: ACC2 assay, spectrophotometric 384 well assay (NADH-linked, coupled lactate dehydrogenase/pyruvate kinase reaction). The class given is biochemical. Conditions: hACC2 construct lacking the 128 N-terminal amino acids; 25° C., 340 nm over 15 minutes. The method in brief:
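Kinetic NADH-linked assay (pyruvate kinase/lactate dehydrogenase coupling) with baculovirus-expressed hACC2 missing its first 128 amino acids. Started with 500 μM ATP and 200 μM each NADH and acetyl-CoA; slope followed 15 min at 25 °C, pH 7.5. No-acetyl-CoA wells define 0%; IC50 by nonlinear regression.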
The compound `CCOc1ccc(C#Cc2ccc(C(C)NC(=O)c3cnco3)cc2)cc1` (stereo not drawn) [Example 4.45] displayed an IC50 of 530 nM.

As to `CCOc1ccc(C#Cc2ccc(C(C)NC(=O)C(C)OCC(F)(F)F)cc2)cc1` (stereo not drawn) [Example 4.46], the half-maximal inhibitory concentration (IC50) was 8500 nM.

In the case of `CCOc1ccc(C#Cc2ccc(C(C)NC(=O)c3ccccn3)cc2)cc1` (stereo not drawn) [Example 4.47], the midpoint of inhibition, the IC50, lay at 2700 nM.

The compound `CCOc1ccc(C#Cc2ccc(C(C)NC(=O)CO)cc2)cc1` (stereo not drawn) [Example 4.48] showed an IC50 of 3900 nM.

Consider `CCOc1ccc(C#Cc2ccc(CC(C)NC(=O)C(C)(C)F)cc2)cc1` (stereo not drawn) [Example 4.49], for which 8700 nM corresponded to half-maximal inhibition (IC50).

In turn, `CCOc1ccc(C#Cc2ccc(CC(C)NC(=O)[C@H](C)OC)cc2)cc1` (stereo partly drawn) [Example 4.50] had an IC50 of 6300 nM.

As for `CCOc1ccc(C#Cc2ccc(CC(C)NC(=O)C3(C)COC3)cc2)cc1` (stereo not drawn) [Example 4.51], the IC50 is 510 nM.

`CCOc1ccc(C#Cc2ccc(CC(C)NC(=O)c3c(C)noc3N)cc2)cc1` (stereo not drawn) [Example 4.52] returned an IC50 of 5100 nM.

For the compound `CCOc1ccc(C#Cc2ccc(C(C)NC(=O)c3cncs3)cc2)cc1` (stereo not drawn) [Example 4.53], half-maximal inhibition (IC50) required 370 nM.

On to `CCOc1ccc(C#Cc2ccc(C(C)NC(=O)c3cocn3)cc2)cc1` (stereo not drawn) [Example 4.54], for which the IC50 stood at 30000 nM.

`CCOc1ccc(C#Cc2ccc(C(C)NC(=O)c3cn[nH]c3)cc2)cc1` (stereo not drawn) [Example 4.55] returned a 50% inhibitory concentration (IC50) of 330 nM.

In turn, `CCOc1ccc(C#Cc2ccc(CC(C)NC(=O)c3cocn3)cc2)cc1` (stereo not drawn) [Example 4.56] displayed an IC50 of 5600 nM.

As to `CCOc1ccc(C#Cc2ccc(CC(C)NC(=O)c3oc(C)nc3C)cc2)cc1` (stereo not drawn) [Example 4.57], half-maximal inhibition (IC50) was put at 990 nM.

The compound `CCOc1ccc(C#Cc2ccc(CC(C)NC(=O)C3CCNC3=O)cc2)cc1` (stereo not drawn) [Example 4.58] registered an IC50 of 680 nM.

`CCOc1ccc(C#Cc2ccc(CC(C)NC(=O)c3ccco3)cc2)cc1` (stereo not drawn) [Example 4.59]: 110 nM corresponded to half-maximal inhibition (IC50).

`CCOc1ccc(C#Cc2ccc(CC(C)NC(=O)c3ncn[nH]3)cc2)cc1` (stereo not drawn) [Example 4.60]: half-maximal inhibition (IC50) required 24700 nM.

Compound `CCOc1ccc(C#Cc2ccc(CC(C)NC(=O)C(=O)N(C)C)cc2)cc1` (stereo not drawn) [Example 4.61] yielded an IC50 of 10100 nM.

`CCOc1ccc(C#Cc2ccc(CC(C)NC(=O)C3CC(=O)N(C)C3)cc2)cc1` (stereo not drawn) [Example 4.62] came in with an IC50 of 3700 nM.

`CCOc1ccc(C#Cc2ccc(CC(C)NC(=O)C3(C#N)CC3)cc2)cc1` (stereo not drawn) [Example 4.63] showed a half-inhibitory concentration (IC50) of 920 nM.

In the case of `CCOc1ccc(C#Cc2ccc(CC(C)NC(=O)C3CCC(=O)NC3)cc2)cc1` (stereo not drawn) [Example 4.64], the IC50 came out at 5100 nM.

In turn, `CCOc1ccc(C#Cc2ccc(CC(C)NC(=O)c3ccon3)cc2)cc1` (stereo not drawn) [Example 4.65] returned an IC50 of 1100 nM.

Consider `CCOc1ccc(C#Cc2ccc(CC(C)NC(=O)c3cnc[nH]3)cc2)cc1` (stereo not drawn) [Example 4.66], for which half-maximal inhibition (IC50) required 4700 nM.

Consider `CCOc1ccc(C#Cc2ccc(CC(C)NC(=O)c3cncs3)cc2)cc1` (stereo not drawn) [Example 4.67], for which the IC50 was 70 nM.

Compound `CCOc1ccc(C#Cc2ccc(CC(C)NC(=O)c3cc[nH]c3)cc2)cc1` (stereo not drawn) [Example 4.68] came in with a concentration for half-maximal inhibition (IC50) of 450 nM.

Compound `CCOc1ccc(C#Cc2ccc(CC(C)NC(=O)c3cn[nH]c3)cc2)cc1` (stereo not drawn) [Example 4.69] came in with a half-maximal inhibitory concentration (IC50) of 70 nM.

For `CCOc1ccc(C#Cc2ccc(CC(C)NC(=O)CCNC(C)=O)cc2)cc1` (stereo not drawn) [Example 4.70], the IC50 came out at 1300 nM.

As for `CCOc1ccc(C#Cc2ccc(CC(C)NC(=O)c3ocnc3C)cc2)cc1` (stereo not drawn) [Example 4.71], the IC50 came out at 430 nM.

Consider `CCOc1ccc(C#Cc2ccc(CC(C)NC(=O)c3cnon3)cc2)cc1` (stereo not drawn) [Example 4.72], for which the IC50 was determined as 940 nM.

The compound `CCOc1ccc(C#Cc2ccc(CC(C)NC(=O)c3nc[nH]n3)cc2)cc1` (stereo not drawn) [Example 4.73] had a half-maximal inhibitory concentration (IC50) of 19200 nM.

In turn, `CCOc1ccc(C#Cc2ccc(CC(C)NC(=O)C3CCNC3)cc2)cc1` (stereo not drawn) [Example 4.74] gave an IC50 of 2800 nM.

In the case of `CCOc1ccc(C#Cc2ccc(C(C)NC(=O)C3CC3C)cc2)cc1` (stereo not drawn) [Example 4.75], the half-maximal inhibitory concentration (IC50) was determined as 15400 nM.

Take `CC(CNC(=O)CC#N)c1ccc(C#Cc2cnc(OC3CCC3)nc2)cc1` (stereo not drawn) [Example 4.76]: the half-maximal inhibitory concentration (IC50) amounted to 660 nM.

As to `CC(CNC(=O)c1cn[nH]c1)c1ccc(C#Cc2cnc(OC3CCC3)nc2)cc1` (stereo not drawn) [Example 4.77], the IC50 was determined as 460 nM.

Consider `CCC(=O)NCC(C)c1ccc(C#Cc2cnc(OC3CCC3)nc2)cc1` (stereo not drawn) [Example 4.78], for which the IC50 turned out to be 290 nM.

Turning to `CC(CNC(=O)C(F)F)c1ccc(C#Cc2cnc(OC3CCC3)nc2)cc1` (stereo not drawn) [Example 4.79], half-maximal inhibition (IC50) was put at 160 nM.

The compound `COc1ncc(C#Cc2ccc(C(C)CNC(=O)c3cn[nH]c3)cc2)cn1` (stereo not drawn) [Example 4.80] yielded an IC50 of 7700 nM.

`CCOc1ccc(C#Cc2ccc(CC(C)NS(=O)(=O)C3CC3)cc2)cc1` (stereo not drawn) [Example 5.1] gave a concentration for half-maximal inhibition (IC50) of 250 nM.

For the compound `CCOc1ccc(C#Cc2ccc(C(C)NS(=O)(=O)CC3CC3)cc2)cc1` (stereo not drawn) [Example 5.2], the IC50 is 7200 nM.

`CCCS(=O)(=O)NC(C)Cc1ccc(C#Cc2ccc(OCC)cc2)cc1` (stereo not drawn) [Example 5.3] returned an IC50 of 1200 nM.

For `CCOc1ccc(C#Cc2ccc(CC(C)NS(C)(=O)=O)cc2)cc1` (stereo not drawn) [Example 5.4], the half-maximal inhibitory concentration (IC50) stood at 330 nM.

With `CCOc1ccc(C#Cc2ccc(C(C)NC(=O)Nc3ccc(N(C)C)cc3)cc2)cc1` (stereo not drawn) [Example 6.1], the 50% inhibitory concentration (IC50) amounted to 30000 nM.

The compound `CCOc1ccc(C#Cc2ccc(C(C)NC(=O)Nc3cccnc3)cc2)cc1` (stereo not drawn) [Example 6.2] yielded an IC50 of 2200 nM.

Take `CCNC(=O)NC(C)Cc1ccc(C#Cc2ccc(OCC)cc2)cc1` (stereo not drawn) [Example 6.3]: half-maximal inhibition (IC50) required 230 nM.

Take `CCOc1ccc(C#Cc2ccc(C(C)NC(=O)NCC(=O)O)cc2)cc1` (stereo not drawn) [Example 6.4]: half-maximal inhibition (IC50) was put at 9600 nM.

In the case of `CCOc1ccc(C#Cc2ccc(C(C)NC(=O)N(C)C)cc2)cc1` (stereo not drawn) [Example 7.1, 3-(1-(4-((4-Ethoxyphenyl)ethynyl)phenyl)ethyl)-1,1-dimethylurea], the IC50 turned out to be 620 nM.

Take `CCOc1ccc(C#Cc2ccc(CC(C)NC(=O)N(C)C)cc2)cc1` (stereo not drawn) [Example 7.2]: the IC50 was 190 nM.

`CCOc1ccc(C#Cc2ccc(CC(C)NC(=O)N(C)CC)cc2)cc1` (stereo not drawn) [Example 7.3] showed an IC50 of 360 nM.

In the case of `CC(=O)NC(C)Cc1ccc(C#Cc2ccc(C(=O)N3CCCCC3)cc2)cc1` (stereo not drawn) [Example 8.1, N-(1-(4-((4-(piperidine-1-carbonyl)phenyl)ethynyl)phenyl)propan-2-yl)acetamide], half-maximal inhibition (IC50) was put at 500 nM.

As for `CC(=O)NC(C)Cc1ccc(C#Cc2ccc(C(=O)N(C)Cc3nc(C)oc3C)cc2)cc1` (stereo not drawn) [Example 8.2], half-maximal inhibition (IC50) was put at 5600 nM.

For the compound `CC(=O)NC(C)Cc1ccc(C#Cc2ccc(C(=O)NCc3cccnc3)cc2)cc1` (stereo not drawn) [Example 8.3], half-maximal inhibition (IC50) required 13000 nM.

In turn, `CC(=O)NC(C)Cc1ccc(C#Cc2ccc(C(=O)NC3CCCC3)cc2)cc1` (stereo not drawn) [Example 8.4] gave an IC50 of 1600 nM.

Turning to `CC(=O)NC(C)Cc1ccc(C#Cc2ccc(C(=O)NCC3CC3)cc2)cc1` (stereo not drawn) [Example 8.6], half-maximal inhibition (IC50) required 1500 nM.

`CC(=O)NC(C)Cc1ccc(C#Cc2ccc(C(=O)NCC3CCCO3)cc2)cc1` (stereo not drawn) [Example 8.7] gave a half-inhibitory concentration (IC50) of 26300 nM.

`CC(=O)NC(C)Cc1ccc(C#Cc2ccc(C(=O)N(C)Cc3ccccc3)cc2)cc1` (stereo not drawn) [Example 8.9] returned an IC50 of 3700 nM.

Turning to `CCCN(C)C(=O)c1ccc(C#Cc2ccc(CC(C)NC(C)=O)cc2)cc1` (stereo not drawn) [Example 8.10], the IC50 was 1100 nM.

`CC(=O)NC(C)Cc1ccc(C#Cc2ccc(C(=O)NCc3ccncc3)cc2)cc1` (stereo not drawn) [Example 8.11] yielded an IC50 of 16600 nM.

In turn, `CC(=O)NC(C)Cc1ccc(C#Cc2ccc(C(=O)N3Cc4ccccc4C3)cc2)cc1` (stereo not drawn) [Example 8.12] had an IC50 of 1500 nM.

Turning to `CC(=O)NC(C)Cc1ccc(C#Cc2ccc(C(=O)N(C)C3CCCC3)cc2)cc1` (stereo not drawn) [Example 8.13], the 50% inhibitory concentration (IC50) was found to be 2400 nM.

As for `CC(=O)NC(C)Cc1ccc(C#Cc2ccc(C(=O)N(C)Cc3cccnc3)cc2)cc1` (stereo not drawn) [Example 8.14], the IC50 was 11500 nM.

`CC(=O)NC(C)Cc1ccc(C#Cc2ccc(C(=O)N3CCC3)cc2)cc1` (stereo not drawn) [Example 8.15]: the IC50 was determined as 2200 nM.

`CC(=O)NC(C)Cc1ccc(C#Cc2ccc(C(=O)N3CCC(C)(C)CC3)cc2)cc1` (stereo not drawn) [Example 8.16] displayed a 50% inhibitory concentration (IC50) of 1900 nM.

For `CCNC(=O)c1ccc(C#Cc2ccc(CC(C)NC(C)=O)cc2)cc1` (stereo not drawn) [Example 8.17], 4400 nM corresponded to half-maximal inhibition (IC50).

With `CC(=O)NC(C)Cc1ccc(C#Cc2cccc(C(=O)NCC(F)(F)F)c2)cc1` (stereo not drawn) [Example 8.18], the IC50 stood at 7700 nM.

The compound `CC(=O)NC(C)Cc1ccc(C#Cc2ccc(C(=O)N(C)c3ccccc3)cc2)cc1` (stereo not drawn) [Example 8.19] had an IC50 of 4600 nM.

In the case of `CC(=O)NC(C)Cc1ccc(C#Cc2ccc(C(=O)NC(C)C)cc2)cc1` (stereo not drawn) [Example 8.20], it took 4400 nM to reach half-maximal inhibition (IC50).

Compound `CC(=O)NC(C)Cc1ccc(C#Cc2ccc(C(=O)NC3CCC3)cc2)cc1` (stereo not drawn) [Example 8.21] came in with an IC50 of 1400 nM.

In turn, `CC(=O)NC(C)Cc1ccc(C#Cc2cccc(C(=O)N(C)CCO)c2)cc1` (stereo not drawn) [Example 8.22] had an IC50 of 6500 nM.

Consider `CC(=O)NC(C)Cc1ccc(C#Cc2cccc(C(=O)NCc3ccccn3)c2)cc1` (stereo not drawn) [Example 8.23], for which the IC50 was found to be 10900 nM.

Turning to `CC(=O)NC(C)Cc1ccc(C#Cc2cccc(C(=O)NCCN3CCOCC3)c2)cc1` (stereo not drawn) [Example 8.24], the IC50 came out at 30000 nM.

The compound `CCCN(C)C(=O)c1cccc(C#Cc2ccc(CC(C)NC(C)=O)cc2)c1` (stereo not drawn) [Example 8.25] gave an IC50 of 2400 nM.

In turn, `CC(=O)NC(C)Cc1ccc(C#Cc2cccc(C(=O)NC3CCCC3)c2)cc1` (stereo not drawn) [Example 8.26] had an IC50 of 1500 nM.

`COCCNC(=O)c1cccc(C#Cc2ccc(CC(C)NC(C)=O)cc2)c1` (stereo not drawn) [Example 8.27] showed a half-inhibitory concentration (IC50) of 11100 nM.

Take `CC(=O)NC(C)Cc1ccc(C#Cc2cccc(C(=O)NCC3CC3)c2)cc1` (stereo not drawn) [Example 8.28]: it took 5000 nM to reach half-maximal inhibition (IC50).

For `CC(=O)NC(C)Cc1ccc(C#Cc2cccc(C(=O)NCC3CCCO3)c2)cc1` (stereo not drawn) [Example 8.29], the IC50 amounted to 4500 nM.

Regarding `CC(=O)NC(C)Cc1ccc(C#Cc2cccc(C(=O)NCC(C)C)c2)cc1` (stereo not drawn) [Example 8.30], the half-maximal inhibitory concentration (IC50) was found to be 2800 nM.

The IC50 is the midpoint of a concentration-inhibition curve. A lower IC50 goes with inhibition by little substance.
